Laboratory results reported in ChEMBL document CHEMBL1137944, “Imidazole derivatives as new potent and selective 20-HETE synthase inhibitors” (Bioorg Med Chem Lett, 2004).

What was measured:
Cytochrome P450 2C9 = Cytochrome P450 2C9 (Homo sapiens, UniProt P11712); experiment: Inhibition of cytochrome P450 2C9
Cytochrome P450 2C19 = Cytochrome P450 2C19 (Homo sapiens, UniProt P33261); experiment: Inhibition of cytochrome P450 2C19
Cytochrome P450 1A2 = target: T1, Cytochrome P450 1A2 (Homo sapiens, UniProt P05177); experiment: Inhibition of cytochrome P450 1A2
T1 sequence (P05177 whole entry): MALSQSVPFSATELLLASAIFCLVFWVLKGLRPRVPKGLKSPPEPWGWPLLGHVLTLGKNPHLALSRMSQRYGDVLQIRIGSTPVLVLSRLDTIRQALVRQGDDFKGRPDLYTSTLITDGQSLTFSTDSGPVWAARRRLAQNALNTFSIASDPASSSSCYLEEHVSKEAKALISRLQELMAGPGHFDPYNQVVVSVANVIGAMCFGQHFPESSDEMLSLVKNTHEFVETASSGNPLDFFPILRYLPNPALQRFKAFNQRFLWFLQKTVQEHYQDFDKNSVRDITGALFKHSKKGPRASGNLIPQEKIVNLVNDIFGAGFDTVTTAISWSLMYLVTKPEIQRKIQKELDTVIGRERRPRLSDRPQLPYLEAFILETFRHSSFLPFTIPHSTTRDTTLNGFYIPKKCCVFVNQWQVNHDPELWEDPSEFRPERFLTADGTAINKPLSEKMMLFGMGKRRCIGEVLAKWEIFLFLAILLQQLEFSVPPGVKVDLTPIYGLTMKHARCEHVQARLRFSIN

Cytochrome P450 3A4 = Cytochrome P450 3A4 (Homo sapiens, UniProt P08684); experiment: Inhibition of cytochrome P450 3A4
Cytochrome P450 2D6 = Cytochrome P450 2D6 (Homo sapiens, UniProt P10635); experiment: Inhibition of cytochrome P450 2D6
[1] = Distribution coefficient of compound was evaluated at pH 6.8; details: octanol/water
[2] = Inhibition of 20-HETE synthesis in human renal microsomes; design: species or system Microsome

Chain of Cytochrome P450 2C9 (P11712 whole entry): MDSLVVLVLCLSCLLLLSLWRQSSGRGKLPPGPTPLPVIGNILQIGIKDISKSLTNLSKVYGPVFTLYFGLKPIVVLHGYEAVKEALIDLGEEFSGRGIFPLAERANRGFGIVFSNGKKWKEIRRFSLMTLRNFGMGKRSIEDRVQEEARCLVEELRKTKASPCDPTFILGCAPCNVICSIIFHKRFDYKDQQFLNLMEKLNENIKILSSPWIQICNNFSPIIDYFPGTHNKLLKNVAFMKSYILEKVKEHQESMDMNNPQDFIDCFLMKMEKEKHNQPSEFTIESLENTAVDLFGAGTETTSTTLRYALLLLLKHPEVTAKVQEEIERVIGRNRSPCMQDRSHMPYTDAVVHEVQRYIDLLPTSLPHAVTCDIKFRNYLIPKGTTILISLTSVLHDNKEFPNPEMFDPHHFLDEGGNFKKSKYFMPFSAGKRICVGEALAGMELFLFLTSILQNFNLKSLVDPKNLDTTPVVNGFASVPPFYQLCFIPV
Chain of Cytochrome P450 3A4 (P08684 whole entry): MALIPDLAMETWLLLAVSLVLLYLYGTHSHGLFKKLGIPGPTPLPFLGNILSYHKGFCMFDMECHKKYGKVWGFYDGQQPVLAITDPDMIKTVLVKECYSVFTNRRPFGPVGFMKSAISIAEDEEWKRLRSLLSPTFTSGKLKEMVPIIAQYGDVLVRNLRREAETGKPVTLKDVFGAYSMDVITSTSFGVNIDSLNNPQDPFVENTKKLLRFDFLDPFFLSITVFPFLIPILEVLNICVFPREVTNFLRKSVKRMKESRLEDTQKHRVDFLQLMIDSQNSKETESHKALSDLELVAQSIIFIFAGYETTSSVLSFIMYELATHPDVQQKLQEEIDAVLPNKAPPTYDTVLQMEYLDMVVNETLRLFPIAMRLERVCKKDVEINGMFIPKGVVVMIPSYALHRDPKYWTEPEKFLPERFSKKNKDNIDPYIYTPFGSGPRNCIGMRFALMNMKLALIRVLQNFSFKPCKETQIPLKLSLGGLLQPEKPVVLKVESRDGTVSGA
Chain of Cytochrome P450 2D6 (P10635 whole entry): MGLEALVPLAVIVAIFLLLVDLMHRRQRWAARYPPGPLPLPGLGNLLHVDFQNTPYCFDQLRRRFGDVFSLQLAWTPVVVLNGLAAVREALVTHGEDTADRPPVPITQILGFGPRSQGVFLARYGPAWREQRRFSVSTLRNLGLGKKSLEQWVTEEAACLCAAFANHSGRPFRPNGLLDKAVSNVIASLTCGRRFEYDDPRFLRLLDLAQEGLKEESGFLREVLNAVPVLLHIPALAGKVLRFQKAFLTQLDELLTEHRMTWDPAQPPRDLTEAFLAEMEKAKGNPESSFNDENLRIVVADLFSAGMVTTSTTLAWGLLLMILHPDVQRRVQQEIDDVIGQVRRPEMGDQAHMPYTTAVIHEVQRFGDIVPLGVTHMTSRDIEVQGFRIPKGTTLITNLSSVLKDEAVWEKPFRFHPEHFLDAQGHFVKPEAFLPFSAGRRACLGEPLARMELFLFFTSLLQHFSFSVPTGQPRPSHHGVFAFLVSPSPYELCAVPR
Chain of Cytochrome P450 2C19 (P33261 whole entry): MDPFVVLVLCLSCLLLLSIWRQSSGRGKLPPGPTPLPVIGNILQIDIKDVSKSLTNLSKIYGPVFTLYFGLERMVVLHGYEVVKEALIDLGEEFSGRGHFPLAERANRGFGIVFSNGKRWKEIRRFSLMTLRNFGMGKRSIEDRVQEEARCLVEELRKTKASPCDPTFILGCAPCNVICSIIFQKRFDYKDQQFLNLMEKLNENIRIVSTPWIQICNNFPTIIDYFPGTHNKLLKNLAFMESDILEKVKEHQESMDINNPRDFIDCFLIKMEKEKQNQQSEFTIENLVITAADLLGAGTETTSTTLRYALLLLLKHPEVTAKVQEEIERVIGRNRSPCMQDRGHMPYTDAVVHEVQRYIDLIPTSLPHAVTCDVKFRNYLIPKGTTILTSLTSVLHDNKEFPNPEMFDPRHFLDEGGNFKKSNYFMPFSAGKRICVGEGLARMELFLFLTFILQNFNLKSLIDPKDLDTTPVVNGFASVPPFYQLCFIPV

Compound	IC50 (Cytochrome P450 1A2)	IC50 (Cytochrome P450 3A4)	IC50 (Cytochrome P450 2D6)	logD [1]	IC50 [2]	IC50 (Cytochrome P450 2C9)	IC50 (Cytochrome P450 2C19)
c1ccc(COc2ccc(-n3ccnc3)cc2)nc1	120 nM	630 nM	1040 nM	1.99	4.5 nM	130 nM	< 46 nM
c1cc(CCCOc2ccc(-n3ccnc3)cc2)ccn1	< 46 nM	344 nM	1040 nM	2.81	1.1 nM	101 nM	< 46 nM
CCOC(=O)N1CCN(CCOc2ccc(-n3ccnc3)cc2)CC1	2240 nM	> 100000 nM	3200 nM	2.27	16 nM	1440 nM	469 nM
c1ccc(CCCOc2ccc(-n3ccnc3)cc2)nc1	< 46 nM	252 nM	620 nM	2.84	2.1 nM	129 nM	< 46 nM
c1cncc(CCCOc2ccc(-n3ccnc3)cc2)c1	< 46 nM	417 nM	1300 nM	2.85	1.1 nM	185 nM	< 46 nM
CCCCc1ccc(/N=C/NO)c(C)c1					8.9 nM		
CCCCCCOc1ccc(-n2ccnc2)cn1					7.7 nM		

Now from value to compound, other results behind:

IC50 (Cytochrome P450 1A2)	IC50 (Cytochrome P450 3A4)	IC50 (Cytochrome P450 2D6)	logD [1]	IC50 [2]	Compound	IC50 (Cytochrome P450 2C9)	IC50 (Cytochrome P450 2C19)
1480 nM	5670 nM	399 nM	0.91	8.6 nM	c1cn(-c2ccc(OCCN3CCOCC3)cc2)cn1	1810 nM	91 nM
800 nM	4460 nM	410 nM	0.51	2.2 nM	CN(C)CCCCCCOc1ccc(-n2ccnc2)cc1		
3400 nM	39000 nM	400 nM	-0.41	51 nM	CN(C)CCCOc1ccc(-n2ccnc2)cc1		
15000 nM	> 100000 nM	1050 nM	-0.08	387 nM	CN(C)CCOc1ccc(-n2ccnc2)cc1		
